Test system: SEM cells
Experiment: cell viability relative to DMSO control; higher = less cytotoxic
Details: 48 h
In short: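 Viability values are per-plate percentages of DMSO wells, with background from cell-free wells. Library compounds in DMSO were pin-dosed, in an 11-point threefold series from 47 μM to 0.79 nM, onto NOMO1 or SEM (500 cells/well) or P12-Ichikawa (1000 cells/well) leukemia cells in 1536-well plates (5 μl). Those cells had been adapted for at least four passages in each medium, and CellTiter-Glo One luminescence was read after 48 h at 37°C.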

[1] = RPMI 5 mM glucose + 10% FBS, 0.000781 µM
[2] = RPMI 5 mM glucose + 10% FBS, 0.00234 µM
[3] = RPMI 5 mM glucose + 10% FBS, 0.00702 µM
[4] = RPMI 5 mM glucose + 10% FBS, 0.0211 µM
[5] = RPMI 5 mM glucose + 10% FBS, 0.0632 µM
[6] = RPMI 5 mM glucose + 10% FBS, 0.19 µM
[7] = RPMI 5 mM glucose + 10% FBS, 0.569 µM
[8] = RPMI 5 mM glucose + 10% FBS, 1.71 µM
[9] = RPMI 5 mM glucose + 10% FBS, 5.12 µM
[10] = RPMI 5 mM glucose + 10% FBS, 15.4 µM
[11] = RPMI 5 mM glucose + 10% FBS, 46.1 µM
[12] = RPMI 5 mM glucose + 10% dialyzed FBS, 0.000781 µM
[13] = RPMI 5 mM glucose + 10% dialyzed FBS, 0.00234 µM
[14] = RPMI 5 mM glucose + 10% dialyzed FBS, 0.00702 µM
[15] = RPMI 5 mM glucose + 10% dialyzed FBS, 0.0211 µM
[16] = RPMI 5 mM glucose + 10% dialyzed FBS, 0.0632 µM
[17] = RPMI 5 mM glucose + 10% dialyzed FBS, 0.19 µM
[18] = RPMI 5 mM glucose + 10% dialyzed FBS, 0.569 µM
[19] = RPMI 5 mM glucose + 10% dialyzed FBS, 1.71 µM
[20] = RPMI 5 mM glucose + 10% dialyzed FBS, 5.12 µM
[21] = RPMI 5 mM glucose + 10% dialyzed FBS, 15.4 µM
[22] = RPMI 5 mM glucose + 10% dialyzed FBS, 46.1 µM
[23] = HPLM + 10% dialyzed FBS, 0.000781 µM
[24] = HPLM + 10% dialyzed FBS, 0.00234 µM
[25] = HPLM + 10% dialyzed FBS, 0.00702 µM
[26] = HPLM + 10% dialyzed FBS, 0.0211 µM
[27] = HPLM + 10% dialyzed FBS, 0.0632 µM
[28] = HPLM + 10% dialyzed FBS, 0.19 µM
[29] = HPLM + 10% dialyzed FBS, 0.569 µM
[30] = HPLM + 10% dialyzed FBS, 1.71 µM
[31] = HPLM + 10% dialyzed FBS, 5.12 µM
[32] = HPLM + 10% dialyzed FBS, 15.4 µM
[33] = HPLM + 10% dialyzed FBS, 46.1 µM

`CCCCc1ccc(N[S+](=O)([O-])c2ccc(C)c(C(=O)N3CCN(c4cccc(C)c4C)CC3)c2)cc1` was tested, and the cell viability [1] was 120%, the cell viability [2] was 124% and the cell viability [3] was 138%. For the same molecule, the cell viability [4] was 17.1%, the cell viability [5] was 129% and the cell viability [6] was 118%. It also gave a cell viability [7] of 137%, a cell viability [8] of 126% and a cell viability [9] of 119%. The cell viability [10] was 106%, the cell viability [11] was 98.2% and the cell viability [12] was 117%. For the same molecule, the cell viability [13] was 96.2%, the cell viability [14] was 127% and the cell viability [15] was 21.2%. For the same molecule, the cell viability [16] was 118%, the cell viability [17] was 118% and the cell viability [18] was 106%. The cell viability [19] was 117%, the cell viability [20] was 107% and the cell viability [21] was 117%. The cell viability [22] was 84.9%.
`COc1ccc2c(c1)CC[C@@H](CN(C)CC(=O)O)[C@H]2c1ccccc1` showed a cell viability [1] of 120%, a cell viability [2] of 122% and a cell viability [3] of 126%. It also gave a cell viability [4] of 109%, a cell viability [5] of 124% and a cell viability [6] of 104%. For the same molecule, the cell viability [7] was 110%, the cell viability [8] was 79.8% and the cell viability [9] was 31%. For the same molecule, the cell viability [10] was 20.9%, the cell viability [11] was 16% and the cell viability [12] was 94.9%. For the same molecule, the cell viability [13] was 100%, the cell viability [14] was 101% and the cell viability [15] was 110%. The cell viability [16] was 109%, the cell viability [17] was 115% and the cell viability [18] was 115%. The cell viability [19] was 91.3%, the cell viability [20] was 41.5% and the cell viability [21] was 24.8%. The cell viability [22] was 19.9%.
Molecule `CC(C)C1=N[N](C\2=C1C(=O)N\C(=N2)CC3=CC=C(OCCO)C=C3)C4=C(Cl)C=CC=C4Cl` has a cell viability [23] of 95.1%, a cell viability [24] of 125% and a cell viability [25] of 108%. It also gave a cell viability [26] of 109%, a cell viability [27] of 95.9% and a cell viability [28] of 16.8%. It also gave a cell viability [29] of 8.67%, a cell viability [30] of 6.16% and a cell viability [31] of 5.35%. The cell viability [32] was 4.68%, the cell viability [33] was 3.44% and the cell viability [1] was 52.1%. The cell viability [2] was 98.6%, the cell viability [3] was 85.3% and the cell viability [4] was 75.8%. The cell viability [5] was 76.5%, the cell viability [6] was 13.8% and the cell viability [7] was 6.73%. For the same molecule, the cell viability [8] was 4.7%, the cell viability [9] was 4.18% and the cell viability [10] was 4.05%. It also gave a cell viability [11] of 2.06%, a cell viability [12] of 90.4% and a cell viability [13] of 102%. The cell viability [14] was 100%, the cell viability [15] was 109% and the cell viability [16] was 107%. The cell viability [17] was 34.2%, the cell viability [18] was 8.73% and the cell viability [19] was 6.73%. For the same molecule, the cell viability [20] was 5.07%, the cell viability [21] was 4.3% and the cell viability [22] was 3.59%.
In the case of `CCCCc1oc2ccccc2c1C(=O)c1cc(I)c(OCCN(CC)CC)c(I)c1`, the cell viability [1] is reported as 108%, the cell viability [2] is reported as 116% and the cell viability [3] is reported as 132%. The cell viability [4] was 136%, the cell viability [5] was 115% and the cell viability [6] was 113%. For the same molecule, the cell viability [7] was 136%, the cell viability [8] was 116% and the cell viability [9] was 119%. For the same molecule, the cell viability [10] was 107% and the cell viability [11] was 97.6%.
For `CC(=O)O/N=C1/C(=C2\C(=O)Nc3cc(Br)ccc32)Nc2ccccc21`, the cell viability [23] was 128%, the cell viability [24] was 110% and the cell viability [25] was 119%. For the same molecule, the cell viability [26] was 118%, the cell viability [27] was 111% and the cell viability [28] was 113%. The cell viability [29] was 86.1%, the cell viability [30] was 37.8% and the cell viability [31] was 32.8%. It also gave a cell viability [32] of 13.2%, a cell viability [33] of 2.6% and a cell viability [1] of 112%. The cell viability [2] was 116%, the cell viability [3] was 109% and the cell viability [4] was 108%. For the same molecule, the cell viability [5] was 119%, the cell viability [6] was 102% and the cell viability [7] was 87.6%. For the same molecule, the cell viability [8] was 29.5%, the cell viability [9] was 22.4% and the cell viability [10] was 8.09%. For the same molecule, the cell viability [11] was 0.612%, the cell viability [12] was 113% and the cell viability [13] was 122%. The cell viability [14] was 122%, the cell viability [15] was 129% and the cell viability [16] was 100%. It also gave a cell viability [17] of 95%, a cell viability [18] of 84.6% and a cell viability [19] of 30.1%. It also gave a cell viability [20] of 37.5%, a cell viability [21] of 11.8% and a cell viability [22] of 1.61%.
`CC1CCN(c2cc(N3CCN(C)CC3)ccc2NC(=O)c2cc(C#N)c[nH]2)CC1` showed a cell viability [23] of 122%, a cell viability [24] of 119% and a cell viability [25] of 120%. It also gave a cell viability [26] of 129%, a cell viability [27] of 129% and a cell viability [28] of 121%. For the same molecule, the cell viability [29] was 124%, the cell viability [30] was 118% and the cell viability [31] was 112%. The cell viability [32] was 102%, the cell viability [33] was 93.6% and the cell viability [1] was 119%. For the same molecule, the cell viability [2] was 124%, the cell viability [3] was 136% and the cell viability [4] was 137%. The cell viability [5] was 123%, the cell viability [6] was 123% and the cell viability [7] was 133%. The cell viability [8] was 129%, the cell viability [9] was 92.9% and the cell viability [10] was 102%. It also gave a cell viability [11] of 83.5%.

Reference: the supplement of paper PMC11451515
